Read-outs that look alike come from different tables or passages of the source.
What was measured:
[1] = test system: WHCO5 oesophageal cancer cell line; assay: MTT assay for cell viability, IC50 determination; assay type: cell-based, human; conditions: MTT
Protocol: (§1) Cells were plated in 96-well plates and treated with varying concentrations of a test compound for 48 hours, after which MTT dye, 3-(4,5-dimethylthiazol-2-yl)-2,5-diphenyltetrazolium bromide (Sigma), was added, and crystals solubilised 4 hours later using Solubilisation Reagent (10% SLS in 0.01 M HCl). Absorbencies were measured at 595 nm the following day using a BioTek microplate spectrophotometer (Winooski, Vt., USA) and IC50 curves were generated using GraphPad Prism.

[2] = MTT assay for cell viability, IC50 determination; assay type: cell-based; conditions: Homo sapiens, MCF-12A; MCF12A; 48 hours, MTT
Protocol: as §1

[3] = test system: A2780 ovarian cancer cell line; assay: MTT assay for cell viability, IC50 determination; assay type: cell-based; conditions: Homo sapiens, 48 hours
Protocol: as §1

[4] = test system: CP70 ovarian cancer cell line; assay: MTT assay for cell viability, IC50 determination; assay type: cell-based; conditions: 48 hours
Protocol: as §1

[5] = test system: CaSki cervical cancer cell line; assay: MTT assay for cell viability, IC50 determination; assay type: cell-based; conditions: MTT, read-out: IC50
Protocol: as §1

[6] = test system: DMB normal skin fibroblasts (non-cancer); assay: MTT assay for cell viability, IC50 determination; assay type: cell-based; conditions: Skin fibroblast; DMB non-cancer; 48 hours, MTT
Protocol: as §1

[7] = test system: FG0 normal skin fibroblasts (non-cancer); assay: MTT assay for cell viability, IC50 determination; assay type: cell-based; conditions: Skin fibroblast, 48 hours
Protocol: as §1

[8] = test system: HeLa cervical cancer cell line; assay: MTT assay for cell viability, IC50 determination; assay type: cell-based; conditions: HeLa, 48 hours, MTT, read-out: IC50
Protocol: as §1

[9] = test system: KYSE150 oesophageal cancer cell line; assay: MTT assay for cell viability, IC50 determination; assay type: cell-based; conditions: Homo sapiens, KYSE-150; KYSE150; 48 hours, MTT
Protocol: as §1

[10] = test system: KYSE180 oesophageal cancer cell line; assay: MTT assay for cell viability, IC50 determination; assay type: cell-based; conditions: Homo sapiens, KYSE-180, 48 hours
Protocol: as §1

[11] = test system: KYSE30 oesophageal cancer cell line; assay: MTT assay for cell viability, IC50 determination; assay type: cell-based; conditions: Homo sapiens, KYSE-30, 48 hours
Protocol: as §1

[12] = test system: MCF7 breast cancer cell line; assay: MTT assay for cell viability, IC50 determination; assay type: cell-based; conditions: Homo sapiens, 48 hours, MTT
Protocol: as §1

[13] = test system: MDA-MB-231 breast cancer cell line; assay: MTT assay for cell viability, IC50 determination; assay type: cell-based; conditions: Homo sapiens, 48 hours, MTT
Protocol: as §1

[14] = test system: OVCAR3 ovarian cancer cell line; assay: MTT assay for cell viability, IC50 determination; assay type: cell-based; conditions: Homo sapiens, OVCAR-3, 48 hours
Protocol: as §1

[15] = test system: SVWI38 transformed cell line; assay: MTT assay for cell viability, IC50 determination; assay type: cell-based; conditions: SVWI38 transformed; 48 hours, MTT
Protocol: as §1

[16] = test system: WHCO1 oesophageal carcinoma cell line; assay: MTT assay for cell viability, IC50 determination; assay type: cell-based; conditions: Homo sapiens, 48 hours
Protocol: as §1

[17] = test system: WHCO6 oesophageal carcinoma cell line; assay: MTT assay for cell viability, IC50 determination; assay type: cell-based; conditions: Homo sapiens, 48 hours
Protocol: as §1

[18] = test system: WI38 non-cancer cell line; assay: MTT assay for cell viability, IC50 determination; assay type: cell-based; conditions: Homo sapiens, WI-38; WI38 non-cancer; 48 hours, MTT
Protocol: as §1

cancer cell lines = assay: MTT cell viability, summary statements over panels of cancer cell lines; assay type: cell-based; conditions: cervical, oesophageal, ovarian and breast cancer cell lines (Table 11); read-out: IC50
Protocol: as §1

[19] = test system: GFP-Kpnα2 localisation in CaSki cells; assay: GFP-Kpnα2 nuclear translocation, fluorescence microscopy; assay type: cell-based; conditions: 10 μM
Protocol: For controls, equivalent volumes of DMSO were used. Cells were fixed with 4% paraformaldehyde prior to fluorescence microscopy and cell nuclei were stained with 0.5 μg/ml DAPI. Due to fluorescence emitted by Compound A in the GFP channel, the Compound A signal had to be excluded from the GFP signal by separating the emission spectra. A Zeiss LSM 510 Meta confocal microscope was used and images captured using the ZEN 2009 camera with associated AxioVision software (version 4.7). Pictures were edited using the Zeiss image browser. For quantification, 100 cells from each condition were analysed using Image J.
Compound A with cell-killing ability was tested for its ability to block nuclear import using a fluorescence-based screening assay. The assay was based on the fact that Kpnα enters the nucleus in a complex with Kpnβ1. Kpnα2 (Impα1 or Rch1) was GFP-tagged (FIG. 8) and its localisation monitored after treatment with the various compounds, via fluorescence microscopy. […] It was noted that Compound A fluoresced itself, and thus the compound fluorescence signal had to be excluded from the GFP-Kpnα2 signal by separating the emission spectra.

CaSki cells = assay: Cell cycle analysis; assay type: cell-based; conditions: 24 hours (FIGS. 24 and 25)
Protocol: CaSki cells were plated in 60 mm dishes and treated with the appropriate concentration of Compound A. Cells were harvested 24 hours after treatment, and fixed in 100% ethanol, after which they were stained with Propidium Iodide and the cell cycle profiles analysed using a BD flow cytometer (BD Biosciences, NJ, USA). Data analysis was performed using ModFit 3.3 software.

Cytochrome C release = assay: Mitochondrial and cytoplasmic protein extraction, Cytochrome C Western Blot; assay type: cell-based; conditions: varying concentrations, 24 hours (FIG. 27)
Protocol: Cells were grown in 10 cm plates and treated with varying concentrations of Compound A for 24 hours. Cells were lysed in subcellular fractionation buffer (250 mM sucrose, 20 mM HEPES, 10 mM KCl, 1.5 mM MgCl2, 1 mM EDTA, 1 mM EGTA, 1 mM DTT and 1× complete protease inhibitor cocktail (Roche)), passed through a 25G needle and incubated on ice for 20 minutes. The nuclear pellet was obtained after centrifugation at 720 g for 5 minutes. The supernantant was further centrifuged at 10,000 g and the resulting supernatant used as the cytoplasmic fraction. The pellet containing the mitochondrial fraction was washed in subcellular fractionation buffer and passed through a 25G needle. The mitochondrial fraction was pelleted at 10,000 g and resuspended in RIPA buffer. Western Blot analysis was performed using a mouse anti-Cytochrome C antibody (BD Pharmingen, San Diego, Calif.), and anti-β-tubulin (H235) (sc-9104, Santa Cruz) and anti-Pereroxiredoxin-3 (PRDX-3) (P1247, Sigma) antibodies were used as protein loading controls for cytoplasmic and mitochondrial fractions, respectively.

Solubility = assay type: physicochemical; conditions: in dimethylsulfoxide (DMSO)

## CN(C)CCCn1c(N)c(-c2nc3ccccc3[nH]2)c2nc3ccccc3nc21 [Compound A, 3-(1H-benzimidazol-2-yl)-1-(3-dimethylaminopropyl)pyrrolo[5,4-b]quinoxalin-2-amine]
[1]; 48 hours
  IC50: 9.09 µM
[1]; Homo sapiens, 48 h
  IC50: 9.09 µM
[2]
  IC50: 12.7 µM
[3]
  IC50: 5.79 µM
[4]
  IC50: 7.7 µM
[5]; 48 hours
  IC50: 9.33 µM
[5]; Homo sapiens, Ca-Ski, 48 h
  IC50: 9.33 µM
[6]
  IC50: 31.4 µM
[7]
  IC50: 21.4 µM
[8]
  IC50: 8.77 µM
[8]; Homo sapiens, 48 h
  IC50: 10.2 µM
[9]
  IC50: 11.7 µM
[10]
  IC50: 15.8 µM
[11]
  IC50: 8.84 µM
[12]
  IC50: 9.33 µM
[13]
  IC50: 7.92 µM
[14]
  IC50: 10.5 µM
[15]
  IC50: 10.4 µM
[16]
  IC50: 10.6 µM
[17]
  IC50: 12 µM
[18]
  IC50: 24 µM
Cancer cell lines
  IC50: ~10 µM
[19]; 24 hours (FIG. 9)
  number of cells containing cytoplasmic GFP-Kpnα2: significant increase
[19]; 24 hours (FIG. 10)
  GFP-Kpnα2 nuclear fluorescence signal: significant decrease
CaSki cells
  percentage of cells in the G1 stage of the cell cycle: increase
  percentage of cells in the S and G2/M stages: decrease
Cytochrome C release
  release of Cytochrome C from the mitochondria into the cytoplasm: release of Cytochrome C from the mitochondria into the cytoplasm, in a dose-dependent manner
Solubility
  solubility: soluble
